Measurements taken from patent US20250136619A1, “HETEROBIFUNCTIONAL COMPOUNDS AND THEIR USE IN TREATING DISEASE” (HALDA THERAPEUTICS OPCO, INC., priority 2021, published 2025).
Where two headings read alike, the source gives them in different places.

Legend:
[1] = molecular target: CDK9 (Homo sapiens (Human), UniProt P50750); test: KdELECT assay for binding affinity to CDK9
Experimental: (§1) Compounds were tested using a KdELECT. Kinase-tagged T7 phage strains were prepared in an E. coli host derived from the BL21 strain. E. coli were grown to log-phase and infected with T7 phage and incubated with shaking at 32° C. until lysis. The lysates were centrifuged and filtered to remove cell debris. The remaining kinases were produced in HEK-293 cells and subsequently tagged with DNA for qPCR detection. Streptavidin-coated magnetic beads were treated with biotinylated small molecule ligands for 30 minutes at room temperature to generate affinity resins for kinase assays. The liganded beads were blocked with excess biotin and washed with blocking buffer (SeaBlock (Pierce), 1% BSA, 0.05% Tween 20, 1 mM DTT) to remove unbound ligand and to reduce non-specific binding. Binding reactions were assembled by combining kinases, liganded affinity beads, and test compounds in 1×binding buffer (20% SeaBlock, 0.17×PBS, 0.05% Tween 20, 6 mM DTT). Test compounds were prepared as 111X stocks in 100% DMSO. Kd values were determined using an 11-point 3-fold compound dilution series with three DMSO control points. All compounds for Kd measurements are distributed by acoustic transfer (non-contact dispensing) in 100% DMSO. The compounds were then diluted directly into the assays such that the final concentration of DMSO was 0.9%. All reactions performed in polypropylene 384-well plate. Each was a final volume of 0.02 mL. The assay plates were incubated at room temperature with shaking for 1 hour and the affinity beads were washed with wash buffer (1×PBS, 0.05% Tween 20). The beads were then re-suspended in elution buffer (1×PBS, 0.05% Tween 20, 0.5 μM nonbiotinylated affinity ligand) and incubated at room temperature with shaking for 30 minutes. The kinase concentration in the eluates was measured by qPCR.

[2] = system: HeLa cells; test: Cellular growth inhibition assay (CellTiter-Glo), HeLa cells; format: cell-based; details: read-out: CTG HELA GI50
Experimental: (§2) HEK293 and HeLa cells were cultured in DMEM medium supplemented with 10% fetal bovine serum and 1% Penn/Strep. Cells were seeded in white 384-well plates at 500 cells/well in […] complete medium. Following seeding, plates were spun at 300×g for three minutes and cultured at 37° C. with 5% CO2 in a humidified tissue culture incubator.
(§3) After 24 hours, compounds were titrated in 100% DMSO and diluted in complete cell culture medium. […] of compound/media mixture was added to cells to bring total volume in well to […]. DMSO alone was used as a negative control. Plates were then spun at 300×g for three minutes and stored at 37° C. with 5% CO2 for three days.
(§4) On Day 0 and Day 3 of compound treatment, cell viability was quantified with CellTiter-Glo 2.0 reagent (Promega). After equilibrating microplates at room temperature for 30 minutes, 25 μL CellTiter-Glo 2.0 reagent was dispensed into each well to bring total volume to […]. Plates were mixed on shaker for 2 minutes at 500 rpm, followed by a 10-minute incubation at room temperature. Following a quick spin, luminescence readings were measured with an En Vision Plate Reader. Data was normalized to DMSO treated Day 0 and Day 3 readings. A four-parameter non-linear regression curve fit was applied to dose-response data in GraphPad Prism data analysis software to determine the half maximal growth inhibitory concentration (GI50) for each compound.

[3] = system: HEK293 cells; test: Cellular growth inhibition assay (CellTiter-Glo), HEK293 cells; format: cell-based; details: read-out: CTG HEK293 GI50
Experimental: as §2, §3, §4

[4] = molecular target: BTK (Homo sapiens (Human), UniProt Q06187); test: KdELECT assay for binding affinity to BTK
Chain of BTK (Q06187 whole entry): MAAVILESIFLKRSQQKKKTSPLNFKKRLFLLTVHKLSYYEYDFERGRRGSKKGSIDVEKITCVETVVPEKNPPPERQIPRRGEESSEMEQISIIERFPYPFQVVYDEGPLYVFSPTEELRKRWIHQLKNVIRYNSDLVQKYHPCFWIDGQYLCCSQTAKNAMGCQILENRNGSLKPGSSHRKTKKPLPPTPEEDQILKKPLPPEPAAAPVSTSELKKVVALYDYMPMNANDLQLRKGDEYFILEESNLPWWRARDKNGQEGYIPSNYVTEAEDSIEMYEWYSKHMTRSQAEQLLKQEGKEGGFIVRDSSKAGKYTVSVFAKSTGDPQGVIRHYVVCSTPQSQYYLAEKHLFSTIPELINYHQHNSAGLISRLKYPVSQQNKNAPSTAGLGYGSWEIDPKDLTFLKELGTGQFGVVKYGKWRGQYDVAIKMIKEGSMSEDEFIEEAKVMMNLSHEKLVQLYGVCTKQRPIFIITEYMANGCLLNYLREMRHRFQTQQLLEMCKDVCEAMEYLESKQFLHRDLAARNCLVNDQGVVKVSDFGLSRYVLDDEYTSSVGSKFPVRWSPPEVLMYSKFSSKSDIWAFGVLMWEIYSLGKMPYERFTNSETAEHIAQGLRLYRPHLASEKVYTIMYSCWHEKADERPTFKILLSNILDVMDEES
Experimental: as §1, with “KdELECT assay.” for “KdELECT.”, “1× binding” for “1×binding”

[5] = Homo sapiens, 72 h, HeLa cells, three days of compound treatment, CellTiter-Glo 2.0
[6] = Homo sapiens, 72 h, HEK293 cells, three days of compound treatment, CellTiter-Glo 2.0

Chain of CDK9 (P50750 whole entry): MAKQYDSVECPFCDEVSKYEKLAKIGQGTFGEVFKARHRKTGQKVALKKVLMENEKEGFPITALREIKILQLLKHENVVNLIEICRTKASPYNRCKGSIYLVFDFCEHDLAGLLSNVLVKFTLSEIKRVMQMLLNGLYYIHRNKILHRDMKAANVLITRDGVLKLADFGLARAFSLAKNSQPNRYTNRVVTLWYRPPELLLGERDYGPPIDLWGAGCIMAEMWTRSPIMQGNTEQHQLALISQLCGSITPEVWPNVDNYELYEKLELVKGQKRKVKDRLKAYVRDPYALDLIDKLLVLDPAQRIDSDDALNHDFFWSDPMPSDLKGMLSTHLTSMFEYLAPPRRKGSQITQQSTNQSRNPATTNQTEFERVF

Kd [1]	GI50 [2, 5]	Compound	GI50 [3, 6]	further results
< 50 nM		C=CC(=O)N1CCN([C@@H](CC2CC2)c2ccc([C@H](C)Nc3ncc4c(n3)N(CCOCCOCCOCCOCCOCCOCCn3cc(CNc5cc(N6CCCC[C@H]6CCO)nc6c(CC)cnn56)ccc3=O)C(=O)OC4)cc2)CC1 [Compound I-87]		
50 to 500 nM	< 500 nM	CCc1cnn2c(NCc3ccc(OCCOCCOCCOCCOCC(=O)N4CC(=O)N(c5cc(C#N)ccn5)[C@H](C(=O)N(c5cc(F)cc(F)c5)C(C(=O)NC5CC(F)(F)C5)c5ccccc5Cl)C4)nc3)cc(N3CCCC[C@H]3CCO)nc12 (stereo partly drawn) [Compound I-98, (2S)—N-[1-(2-chlorophenyl)-2-[(3,3-difluorocyclobutyl)amino]-2-oxo-ethyl]-1-(4-cyano-2-pyridyl)-N-(3,5-difluorophenyl)-4-[2-[2-[2-[2-[2-[[5-[[[3-ethyl-5-[(2S)-2-(2-hydroxyethyl)-1-piperidyl]pyrazolo[1,5-a]pyrimidin-7-yl]amino]methyl]-2-pyridyl]oxy]ethoxy]ethoxy]ethoxy]ethoxy]acetyl]-6-oxo-piperazine-2-carboxamide]	< 500 nM	
50 to 500 nM	< 500 nM	CCc1cnn2c(NCc3ccc(OCC(=O)N4CC(=O)N(c5cc(C#N)ccn5)[C@H](C(=O)N(c5cc(F)cc(F)c5)[C@H](C(=O)NC5CC(F)(F)C5)c5ccccc5Cl)C4)nc3)cc(N3CCCC[C@H]3CCO)nc12 [Compound I-96, (2S)—N-[(1S)-1-(2-chlorophenyl)-2-[(3,3-difluorocyclobutyl)amino]-2-oxo-ethyl]-1-(4-cyano-2-pyridyl)-N-(3,5-difluorophenyl)-4-[2-[[5-[[[3-ethyl-5-[(2S)-2-(2-hydroxyethyl)-1-piperidyl]pyrazolo[1,5-a]pyrimidin-7-yl]amino]methyl]-2-pyridyl]oxy]acetyl]-6-oxo-piperazine-2-carboxamide]	< 500 nM	
500 to 2500 nM	1500 to 5000 nM	CCc1cnn2c(NCc3ccc(=O)n(CCOCCOCCNS(=O)(=O)c4cc(F)cc(N(C(=O)[C@@H]5CCC(=O)N5c5cc(C#N)ccn5)C(C(=O)NC5CC(F)(F)C5)c5ccccc5Cl)c4)c3)cc(N3CCCC[C@H]3CCO)nc12 (stereo partly drawn) [Compound I-93, (2S)—N-[1-(2-chlorophenyl)-2-[(3,3-difluorocyclobutyl)amino]-2-oxo-ethyl]-1-(4-cyano-2-pyridyl)-N-[3-[2-[2-[2-[5-[ [[3-ethyl-5-[(2S)-2-(2-hydroxyethyl)-1-piperidyl]pyrazolo[1,5-a]pyrimidin-7-yl]amino]methyl]-2-oxo-1-pyridyl]ethoxy]ethoxy]ethylsulfamoyl]-5-fluoro-phenyl]-5-oxo-pyrrolidine-2-carboxamide]	> 5000 nM	
500 to 2500 nM		C=CC(=O)N1CCN([C@@H](CC2CC2)c2ccc([C@H](C)Nc3ncc4c(n3)N(CCOCCOCCOCCOCCOCCOCCNS(=O)(=O)c3ccc(Nc5ncc(Br)c(Nc6cccc(F)c6C(N)=O)n5)cc3)C(=O)OC4)cc2)CC1 [Compound I-86, 2-[[5-bromo-2-[4-[2-[2-[2-[2-[2-[2-[2-[7-[[(1S)-1-[4-[(1S)-2-cyclopropyl-1-(4-prop-2-enoylpiperazin-1-yl)ethyl]phenyl]ethyl]amino]-2-oxo-4H-pyrimido[4,5-d][1,3]oxazin-1-yl]ethoxy]ethoxy]ethoxy]ethoxy]ethoxy]ethoxy]ethylsulfamoyl]anilino]pyrimidin-4-yl]amino]-6-fluoro-benzamide]		
500 to 2500 nM		CCc1cnn2c(NCc3ccc(OCCOCCOCCNS(=O)(=O)c4cc(F)cc(N(C(=O)[C@@H]5CCC(=O)N5c5cc(C#N)ccn5)C(C(=O)NC5CC(F)(F)C5)c5ccccc5Cl)c4)nc3)cc(N3CCCC[C@H]3CCO)nc12 (stereo partly shown) [Compound I-92]		GI50 ([2]; HeLa cells, three days of compound treatment, CellTiter-Glo 2.0): < 500 nM; GI50 ([3]; HEK293 cells, three days of compound treatment, CellTiter-Glo 2.0): < 500 nM

The next lines start with the compound.

Compound	Kd [1]	GI50 [2, 5]	GI50 [3, 6]	further results
C=CC(=O)N1CCN([C@@H](CC2CC2)c2ccc([C@H](C)Nc3ncc4c(n3)N(CCOCCOCCOCCOCCOCCOCCOc3ccc(CNc5cc(N6CCCC[C@H]6CCO)nc6c(CC)cnn56)cn3)C(=O)OC4)cc2)CC1 [Compound I-83]	< 50 nM			
C=CC(=O)N1CCN([C@@H](CC2CC2)c2ccc([C@H](C)Nc3ncc4c(n3)N(CCOCCOCCn3cc(CNc5cc(N6CCCC[C@H]6CCO)nc6c(CC)cnn56)ccc3=O)C(=O)OC4)cc2)CC1 [Compound I-56]	50 to 500 nM			
Cc1c(NC(=O)c2ccc(C3CC3)cc2F)cc(F)cc1-c1ncnc(N)c1OCCN(C)C(=O)/C=C/CN1CCC(OCCOCCOCCNS(=O)(=O)c2ccc(Nc3ncc(Br)c(Nc4cccc(F)c4C(N)=O)n3)cc2)CC1 [Compound I-80, 2-[[2-[4-[2-[2-[2-[[1-[(E)-4-[2-[4-amino-6-[3-[(4-cyclopropyl-2-fluoro-benzoyl)amino]-5-fluoro-2-methyl-phenyl]pyrimidin-5-yl]oxyethyl-methyl-amino]-4-oxo-but-2-enyl]-4-piperidyl]oxy]ethoxy]ethoxy]ethylsulfamoyl]anilino]-5-bromo-pyrimidin-4-yl]amino]-6-fluoro-benzamide]	50 to 500 nM			Kd [4]: < 50 nM
C=CC(=O)N1CCN([C@@H](CC2CC2)c2ccc([C@H](C)Nc3ncc4c(n3)N(CCOCCOCCOc3ccc(CNc5cc(N6CCCC[C@H]6CCO)nc6c(CC)cnn56)cn3)C(=O)OC4)cc2)CC1 [Compound I-55]	50 to 500 nM			
CCc1cnn2c(NCc3ccc(OCCOCCOCCOCCOCCOCCOCCOCCOCCN(C)C/C=C/C(=O)N4CCC[C@@H](n5nc(-c6ccc(Oc7ccccc7)cc6)c6c(N)ncnc65)C4)nc3)cc(N3CCCC[C@H]3CCO)nc12 [Compound I-48]		1500 to 5000 nM	1500 to 5000 nM	Kd [4]: < 50 nM
CN(OCCOCCOCCOCCOCCOCCOCCOC/C=C/C(=O)N1CCC[C@@H](n2nc(-c3ccc(Oc4ccccc4)cc3)c3c(N)ncnc32)C1)C(=O)N1N=C(c2cc(F)ccc2F)SC1(CCCN)c1ccccc1 (stereo partly shown) [Compound I-51]		500 to 1500 nM	1500 to 5000 nM	Kd [4]: < 50 nM
CCc1cnn2c(NCc3ccc(OCCOCCOCC(=O)N4CC(=O)N(c5cc(C#N)ccn5)[C@H](C(=O)N(c5cc(F)cc(F)c5)[C@H](C(=O)NC5CC(F)(F)C5)c5ccccc5Cl)C4)nc3)cc(N3CCCC[C@H]3CCO)nc12 [Compound I-97, (2S)—N-[(1S)-1-(2-chlorophenyl)-2-[(3,3-difluorocyclobutyl)amino]-2-oxo-ethyl]-1-(4-cyano-2-pyridyl)-N-(3,5-difluorophenyl)-4-[2-[2-[2-[[5-[[[3-ethyl-5-[(2S)-2-(2-hydroxyethyl)-1-piperidyl]pyrazolo[1,5-a]pyrimidin-7-yl]amino]methyl]-2-pyridyl]oxy]ethoxy]ethoxy]acetyl]-6-oxo-piperazine-2-carboxamide]	50 to 500 nM			GI50 ([2]; Homo sapiens, HeLa, 72 h): < 500 nM; GI50 ([3]; Homo sapiens, HEK293, 72 h): < 500 nM
